We go through two compounds from patent publication US8158821B2, “Crystal of 5-aminolevulinic acid phosphate and process for producing the same” (priority 2006, dated 2012).

The nature of data set [1]: Test on moisture absorption resistance (change in mass on standing at 25° C. and 90% RH). Type of data set: physicochemical. To be noted: for ratio of change in mass: 25° C., 90% RH, 1 g solid, phosphate. The procedure:
With regard to 5-aminolevulinic acid phosphate, moisture absorption resistance was evaluated by weighing out 1 g of each of the powder obtained by a conventional method (the method described in Example 1 of WO2005/100300 pamphlet) and the crystal obtained in Example 1, allowing it to stand under conditions of 25° C. and 90% RH, subsequently measuring mass after the passage of each period of time, and calculating a ratio of change in mass.

A short description of data set [2]: Thermal stability test (increase in PDPA content on heating, by liquid chromatography). Type of data set: physicochemical. To be noted: for Increase in PDPA concentration in solid: heating time 96 hr, phosphate. The protocol: With regard to 5-aminolevulinic acid phosphate, 1 g of each of the powder obtained by a conventional method (the method described in Example 1 of WO2005/100300 pamphlet) and the crystal obtained in Example 1 was weighed out and allowed to stand under each condition shown in Table 3. The amount of 2,5-pyrazinedipropionic acid (PDPA), which is an impurity generated by heating and a compound formed by dimerization of 5-aminolevulinic acid molecules, was measured by liquid chromatography. An increase in the content of PDPA in 5-aminolevulinic acid phosphate was calculated and thermal stability as a substance was evaluated.
Analytical conditions for liquid chromatography: separation column: μBondasphere C18 5μ 100 Å manufactured by Waters, eluent: a mixture of 2% aqueous acetic acid solution and methanol in a volume ratio of 90/10, flow rate: 1.0 mL/min, injection amount of sample: 50 μl, column temperature: 40° C., detector: UV detector (276 nm).

Regarding `NCC(=O)CCC(=O)O.O=P(O)(O)O` [Powder, 5-aminolevulinic acid phosphate], the “ratio of change in mass” value was “+6%” in data set [1] (time passed 1 hr); “+11%” in data set [1] (time passed 3 hr); “+14%” in data set [1] (time passed 5 hr); “+16%” in data set [1] (time passed 6 hr); “+17%” in data set [1] (time passed 7 hr); “+21%” in data set [1] (time passed 24 hr). Also, the entries for the “Increase in PDPA concentration in solid” value in data set [2] (heating temperature 30° C.) and in data set [2] (heating temperature 60° C.) were “+10 ppm” and “+302 ppm”, respectively.
As for `NCC(=O)CCC(=O)O.O=P(O)(O)O` [Crystal, 5-aminolevulinic acid phosphate], the “ratio of change in mass” value in data set [1] (time passed 1 hr) is “+0.05%”; in data set [1] (time passed 3 hr), “+0.06%”; in data set [1] (time passed 5 hr), “+0.09%”; in data set [1] (time passed 6 hr), “+0.08%”; in data set [1] (time passed 7 hr), “+0.09%”; in data set [1] (time passed 24 hr), “+0.4%”. In addition, the “moisture absorption resistance (in words)” value in data set [1] (as compared with the conventional powder, Table 2) is recorded as “excellent in moisture absorption resistance”. Further, the “thermal stability (in words)” value in data set [2] (as compared with the conventional powder, Table 3) is on record as “excellent in thermal stability”. Also, the figures for the “Increase in PDPA concentration in solid” value in data set [2] (heating temperature 30° C.) and in data set [2] (heating temperature 60° C.) were “+0 ppm” and −0 ppm, respectively.
